Data published in patent US20250144067A1, “PERSONALIZED STARVATION THERAPY FOR CANCER” (Faeth Therapeutics, Inc., priority 2021, published 2025).
Counter-ions that a name gives are not always drawn. Like-named read-outs stand apart in the source and are kept apart here.

What was measured:
[1] = tested on: NCI-H292 lung cancer cells; assay: FDA drug screening, complete media vs cholesterol-free media without statin (TABLE 1); type: cell-based, human
[2] = tested on: NCI-H292 lung cancer cells; assay: FDA drug screening, complete media vs cholesterol-free media with simvastatin (TABLE 2); type: cell-based, human
[3] = NCI-H292 cells, cholesterol-free media without statin
[4] = complete vs cholesterol-free media, greater than 0 enhanced anti-cancer activity, about 0 neutral, below 0 antagonists
[5] = NCI-H292 cells, cholesterol-free media with simvastatin 0.04 μM, cell growth value in FDA drug screen
[6] = NCI-H292 cells, complete media, cell growth value in FDA drug screen
[7] = complete media minus cholesterol-free media + simvastatin, >0 enhanced anti-cancer activity, about 0 neutral, <0 antagonist
[8] = NCI-H292 cells, FDA library drug in cholesterol-free media with simvastatin 0.04 μM
[9] = NCI-H292 cells, FDA library drug in complete media
[10] = complete media vs cholesterol-free media + simvastatin (0.04 μM), >0 enhanced anti-cancer activity, about 0 neutral, <0 antagonist
[11] = NCI-H292 cells, cholesterol-free media without statin, FDA drug library screen
[12] = NCI-H292 cells, complete media, FDA drug library screen
[13] = complete vs cholesterol-free media, >0 enhanced anti-cancer activity, about 0 neutral, <0 antagonist
[14] = NCI-H292 cells, drug in cholesterol-free media with simvastatin 0.04 μM
[15] = NCI-H292 cells, drug in complete media
[16] = Complete minus Cholesterol-free, >0 enhanced anti-cancer activity, about 0 neutral, <0 antagonist
[17] = NCI-H292 cells, FDA drug library screen, cholesterol-free media with simvastatin 0.04 μM
[18] = NCI-H292 cells, FDA drug library screen, complete media
[19] = NCI-H292 cells, cholesterol-free media with simvastatin 0.04 μM, FDA drug library screen (TABLE 2)
[20] = NCI-H292 cells, complete media, FDA drug library screen (TABLE 2)
[21] = complete media minus cholesterol-free media + simvastatin (0.04 μM), >0 enhanced anti-cancer activity, about 0 neutral, <0 antagonist
[22] = Complete minus Cholesterol-free, […]
[23] = NCI-H292 cells, cholesterol-free media with simvastatin 0.04 μM, […]
[24] = NCI-H292 cells, complete media, […]
[25] = complete media minus cholesterol-free media + simvastatin, […]
[26] = Complete minus Cholesterol-free, greater than 0 enhanced anti-cancer activity, about 0 neutral, below 0 antagonists
[27] = NCI-H292 cells in cholesterol-free media without statin
[28] = NCI-H292 cells in complete media

Cc1ccc(-c2cc(C(F)(F)F)nn2-c2ccc(S(N)(=O)=O)cc2)cc1 [Celecoxib]
Cholesterol-free [1, 3]: 1.362 | Complete ([1]; NCI-H292 cells, complete media): 0.9472 | Difference [1, 4]: −0.42 | Cholesterol-free media + simvastatin (0.04 μM) [2, 5]: 1.271 | Complete Media [2, 6]: 1.302 | Difference [2, 7]: 0.03

CC1=C(C(=O)O)N2C(=O)[C@@H](NC(=O)[C@H](N)c3ccccc3)[C@H]2SC1 [Cephalexin (monohydrate)]
Cholesterol-free [1, 3]: 1.506 | Complete ([1]; NCI-H292 cells, complete media): 1.062 | Difference [1, 4]: −0.44 | Cholesterol-free media + simvastatin (0.04 μM) [2, 8]: 1.59 | Complete Media [2, 9]: 0.9161 | Difference [2, 10]: −0.67

CC1=C(C(=O)O)N2C(=O)[C@@H](NC(=O)[C@H](N)c3ccccc3)[C@H]2SC1 [Cephalexin]
Cholesterol-free [1, 3]: 1.173 | Complete ([1]; NCI-H292 cells, complete media): 0.8408 | Difference [1, 4]: −0.33 | Cholesterol-free media + simvastatin (0.04 μM) [2, 8]: 1.341 | Complete Media [2, 9]: 0.9798 | Difference [2, 10]: −0.36

CC(=O)OCC1=C(C(=O)O)N2C(=O)[C@@H](NC(=O)Cc3cccs3)[C@H]2SC1 [Cephalothin (sodium)]
Cholesterol-free [1, 11]: 0.5607 | Complete [1, 12]: 1.228 | Difference [1, 13]: 0.67 | Cholesterol-free media + simvastatin (0.04 μM) [2, 14]: 0.9867 | Complete Media [2, 15]: 0.7901 | Difference [2, 10]: −0.20

CC(=O)OCC1=C(C(=O)O)N2C(=O)[C@@H](NC(=O)CSc3ccncc3)[C@H]2SC1 [Cephapirin (sodium)]
Cholesterol-free [1]: 0.9897 | Complete [1]: 1.131 | Difference [1]: 0.14 | Cholesterol-free media + simvastatin (0.04 μM) [2]: 2.472 | Complete Media [2]: 1.209 | Difference [2]: −1.26

CC1=C(C(=O)O)N2C(=O)[C@@H](NC(=O)[C@H](N)C3=CCC=CC3)[C@H]2SC1 [Cephradine]
Cholesterol-free [1, 11]: 0.9298 | Complete [1, 12]: 1.756 | Difference [1, 13]: 0.83 | Cholesterol-free media + simvastatin (0.04 μM) [2, 8]: 1.213 | Complete Media [2, 9]: 0.8523 | Difference [2, 10]: −0.36

Cc1cc(Nc2ncc(Cl)c(Nc3ccccc3S(=O)(=O)C(C)C)n2)c(OC(C)C)cc1C1CCNCC1 [Ceritinib dihydrochloride]
Difference [1, 16]: −0.02 | Cholesterol-free [1, 11]: 0.3644 | Complete [1, 12]: 0.3489 | Cholesterol-free media + simvastatin (0.04 μM) [2, 17]: 0.1666 | Complete Media [2, 18]: 0.03677 | Difference [2, 10]: −0.13

Cc1cc(Nc2ncc(Cl)c(Nc3ccccc3S(=O)(=O)C(C)C)n2)c(OC(C)C)cc1C1CCNCC1 [Ceritinib]
Difference [1, 16]: −0.05 | Cholesterol-free [1, 11]: 0.1038 | Complete [1, 12]: 0.05759 | Cholesterol-free media + simvastatin (0.04 μM) [2, 19]: 0.1163 | Complete Media [2, 20]: 0.0662 | Difference [2, 21]: 0.05

O=C(O)COCCN1CCN(C(c2ccccc2)c2ccc(Cl)cc2)CC1 (centres unmarked) [Cetirizine (dihydrochloride)]
Difference [1, 16]: −0.28 | Cholesterol-free [1, 3]: 1.185 | Complete ([1]; NCI-H292 cells, complete media): 0.9092 | Cholesterol-free media + simvastatin (0.04 μM) [2, 5]: 0.9045 | Complete Media [2, 6]: 0.9315 | Difference [2, 7]: 0.03

CCCCCCCCCCCCCCCC[n+]1ccccc1.O.[Cl-] [Cetylpyridinium (chloride monohydrate)]
Difference [1, 22]: 0.03 | Cholesterol-free [1, 11]: −0.01651 | Complete [1, 12]: 0.01449 | Cholesterol-free media + simvastatin (0.04 μM) [2, 23]: 0.1519 | Complete Media [2, 24]: 0.2714 | Difference [2, 25]: 0.12

CCCCCCCCCCCCCCCC[n+]1ccccc1.[Cl-] [Cetylpyridinium (chloride)]
Difference [1, 22]: −0.03 | Cholesterol-free [1, 11]: 0.09243 | Complete [1, 12]: 0.05797 | Cholesterol-free media + simvastatin (0.04 μM) [2, 23]: 0.218 | Complete Media [2, 24]: 0.2381 | Difference [2, 25]: 0.02

CC1OC2(CS1)CN1CCC2CC1 (centres unmarked) [Cevimeline (hydrochloride hemihydrate)]
Cholesterol-free [1, 11]: 0.5656 | Complete [1, 12]: 1.046 | Difference [1, 13]: 0.48 | Cholesterol-free media + simvastatin (0.04 μM) [2, 19]: 0.9444 | Complete Media [2, 20]: 0.9482 | Difference [2, 21]: 0.00

C[C@H](CCC(=O)O)[C@H]1CC[C@H]2[C@@H]3[C@H](O)C[C@@H]4C[C@H](O)CC[C@]4(C)[C@H]3CC[C@]12C [Chenodeoxycholic Acid]
Cholesterol-free [1, 11]: 0.7972 | Complete [1, 12]: 1.211 | Difference [1, 13]: 0.41 | Cholesterol-free media + simvastatin (0.04 μM) [2, 19]: 0.895 | Complete Media [2, 20]: 0.9061 | Difference [2, 21]: 0.01

[H]/N=C(\N/C(=N/[H])NCCCCCCNC(=N)NC(=N)Nc1ccc(Cl)cc1)Nc1ccc(Cl)cc1 [Chlorhexidine (digluconate)]
Cholesterol-free [1, 11]: 0.8244 | Complete [1, 12]: 0.943 | Difference [1, 13]: 0.12 | Cholesterol-free media + simvastatin (0.04 μM) [2, 19]: 1.008 | Complete Media [2, 20]: 0.9694 | Difference [2, 21]: −0.04

[H]/N=C(\N/C(=N/[H])NCCCCCCNC(=N)NC(=N)Nc1ccc(Cl)cc1)Nc1ccc(Cl)cc1 [Chlorhexidine]
Difference [1, 16]: 0.04 | Cholesterol-free [1, 11]: 0.0819 | Complete [1, 12]: 0.1259 | Cholesterol-free media + simvastatin (0.04 μM) [2, 19]: 0.6176 | Complete Media [2, 20]: 0.5919 | Difference [2, 21]: −0.03

CC(=O)O[C@]1(C(C)=O)CC[C@H]2[C@@H]3C=C(Cl)C4=CC(=O)CC[C@]4(C)[C@H]3CC[C@@]21C [Chlormadinone acetate]
Difference [1, 26]: −0.74 | Cholesterol-free [1, 27]: 1.695 | Complete [1, 28]: 0.9505 | Cholesterol-free media + simvastatin (0.04 μM) [2, 19]: 1.079 | Complete Media [2, 20]: 1.06 | Difference [2, 21]: −0.02

CN1C(=O)CCS(=O)(=O)C1c1ccc(Cl)cc1 (centres unmarked) [Chlormezanone]
Cholesterol-free [1, 11]: 0.6871 | Complete [1, 12]: 0.9881 | Difference ([1]; complete vs cholesterol-free media, […]): 0.30 | Cholesterol-free media + simvastatin (0.04 μM) [2, 8]: 1.449 | Complete Media [2, 9]: 1.114 | Difference ([2]; complete media vs cholesterol-free media + simvastatin (0.04 μM), […]): −0.34

CC(C)(O)C(Cl)(Cl)Cl [Chlorobutanol]
Difference [1, 16]: 0.02 | Cholesterol-free [1, 11]: 0.5641 | Complete [1, 12]: 0.5799 | Cholesterol-free media + simvastatin (0.04 μM) [2, 14]: 1.763 | Complete Media [2, 15]: 1.523 | Difference [2, 10]: −0.24

CCN(CC)CCOC(=O)c1ccc(N)cc1Cl [Chloroprocaine (hydrochloride)]
Difference [1, 16]: −0.28 | Cholesterol-free [1, 3]: 1.161 | Complete ([1]; NCI-H292 cells, complete media): 0.8831 | Cholesterol-free media + simvastatin (0.04 μM) [2, 8]: 1.184 | Complete Media [2, 9]: 0.9029 | Difference [2, 10]: −0.28

CN(C)CCN(Cc1ccc(Cl)cc1)c1ccccn1 [Chloropyramine hydrochloride]
Difference ([1]; Complete minus Cholesterol-free, greater than 0 enhanced anti-cancer activity, about 0 neutral, below 0 antagonist): −0.17 | Cholesterol-free ([1]; NCI-H292 cells, FDA drug library screen, cholesterol-free media without statin): 1.558 | Complete [1, 18]: 1.385 | Cholesterol-free media + simvastatin (0.04 μM) [2, 5]: 0.999 | Complete Media [2, 6]: 1.055 | Difference [2, 7]: 0.06

CCN(CC)CCCC(C)Nc1ccnc2cc(Cl)ccc12 (centres unmarked) [Chloroquine]
Cholesterol-free [1]: 1.226 | Complete [1]: 0.9181 | Difference [1]: −0.31 | Cholesterol-free media + simvastatin (0.04 μM) [2]: 2.192 | Complete Media [2]: 0.9997 | Difference [2]: −1.19

NS(=O)(=O)c1cc2c(cc1Cl)N=CNS2(=O)=O [Chlorothiazide]
Cholesterol-free [1, 11]: 0.8661 | Complete [1, 12]: 1.321 | Difference [1, 13]: 0.45 | Cholesterol-free media + simvastatin (0.04 μM) [2, 14]: 1.126 | Complete Media [2, 15]: 0.9372 | Difference [2, 10]: −0.19

Oc1c(Cl)cc(Cl)c2cccnc12 [Chloroxine]
Cholesterol-free [1, 11]: 1.086 | Complete [1, 12]: 1.288 | Difference [1, 13]: 0.20 | Cholesterol-free media + simvastatin (0.04 μM) [2, 5]: 0.8888 | Complete Media [2, 6]: 1.011 | Difference [2, 7]: 0.12

Cc1cc(O)cc(C)c1Cl [Chloroxylenol]
Difference [1, 16]: −0.19 | Cholesterol-free [1, 3]: 1.219 | Complete ([1]; NCI-H292 cells, complete media): 1.028 | Cholesterol-free media + simvastatin (0.04 μM) [2, 19]: 0.9866 | Complete Media [2, 20]: 0.951 | Difference [2, 21]: −0.04

CN(C)CCOC(C)(c1ccccc1)c1ccc(Cl)cc1 (centres unmarked) [Chlorphenoxamine]
Cholesterol-free [1, 3]: 1.303 | Complete ([1]; NCI-H292 cells, complete media): 0.9903 | Difference [1, 4]: −0.31 | Cholesterol-free media + simvastatin (0.04 μM) [2, 8]: 1.703 | Complete Media [2, 9]: 1.16 | Difference [2, 10]: −0.54

CCCNC(=O)NS(=O)(=O)c1ccc(Cl)cc1 [Chlorpropamide]
Difference [1, 26]: −0.51 | Cholesterol-free [1, 27]: 1.49 | Complete [1, 28]: 0.9801 | Cholesterol-free media + simvastatin (0.04 μM) [2, 14]: 1.114 | Complete Media [2, 15]: 0.9308 | Difference [2, 10]: −0.18

CN(C)CC/C=C1/c2ccccc2Sc2ccc(Cl)cc21 [Chlorprothixene (hydrochloride)]
Cholesterol-free [1, 3]: 1.492 | Complete ([1]; NCI-H292 cells, complete media): 1.027 | Difference [1, 4]: −0.46 | Cholesterol-free media + simvastatin (0.04 μM) [2, 17]: 0.8374 | Complete Media [2, 18]: 1.056 | Difference [2, 7]: 0.22

CN(C)CC/C=C1/c2ccccc2Sc2ccc(Cl)cc21 [Chlorprothixene]
Cholesterol-free [1, 3]: 1.606 | Complete ([1]; NCI-H292 cells, complete media): 1.176 | Difference [1, 4]: −0.43 | Cholesterol-free media + simvastatin (0.04 μM) [2, 17]: 2.022 | Difference [2, 21]: −0.96
